From US8399501B2, “Crystalline alkoxyimidazol-1-ylmethyl biphenyl carboxylic acid and methods for preparing thereof” (Theravance, Inc., priority 2010, dated 2013)

Assay: Solid state stability assessment (storage at 40° C. with desiccant, impurities by HPLC)
Format: physicochemical
Conditions: for % M + 28 (ethyl ester imidazole impurity, HPLC area percentage) / % M − 28 (acid dihydroimidazole impurity, HPLC area percentage) / Δ % M + 28 (increase relative to time zero) / Δ % M − 28 (increase relative to time zero): closed vials, Molecular Sieve 4A dessicant
Experimental: Samples of the crystalline 4′-{2-ethoxy-4-ethyl-5-[((S)-2-mercapto-4-methylpentanoyl-amino)methyl]imidazol-1-ylmethyl}-3′-fluorobiphenyl-2-carboxylic acid, the micronized crystalline compound, and the slurried micronized crystalline compound, about 15 mg each, were stored in multiple closed vials at 40° C. (with 1 g Molecular Sieve 4A dessicant included). At specific intervals, the entire contents of representative vials were analyzed by the following HPLC method:
Column: Agilent Zorbox SB-C18, 4.6×250 mm, 5 μm (Part No. 880975-902). Mobile Phase A: 80% water, 20% MeCN, 0.01% TFA. Mobile Phase B: 20% water, 80% MeCN, 0.01% TFA. Flow rate: 1 mL/min. Injection Volume: 20 μL. Detector: 225 nm.
Samples were prepared as 0.2-0.3 mg/mL stock solutions in 40% MeOH and 60% MeCN in water, depending on the solubility, for injection onto the HPLC. The amount of 4′-{2-ethoxy-4-ethyl-5-[(2-mercapto-4-methylpentanoylamino)methyl]imidazol-1-ylmethyl}-3′-fluorobiphenyl-2-carboxylic acid ethyl ester (M+28) and 4′-{4-ethyl-5-[(2-mercapto-4-methylpentanoylamino)methyl]-2-oxo-2,3-dihydroimidazol-1-ylmethyl}-3′-fluorobiphenyl-2-carboxylic acid (M−28) present were determined by HPLC area percentage (% AUC or area/area %).

[1] = 2 weeks at 40° C., listed as Ex. 1
[2] = 4 weeks at 40° C., listed as Ex. 1
[3] = 2 weeks at 40° C., listed as Ex. 2
[4] = 4 weeks at 40° C., listed as Ex. 2
[5] = 2 weeks at 40° C., listed as Ex. 3
[6] = 2 weeks at 40° C., listed as stable micronized acid imidazole
[7] = 4 weeks at 40° C., listed as Ex. 3
[8] = 4 weeks at 40° C., listed as stable micronized acid imidazole

Question: What does the source list for `CCOc1nc(CC)c(CNC(=O)[C@@H](S)CC(C)C)n1Cc1ccc(-c2ccccc2C(=O)O)cc1F` [Example 1, 4′-{2-Ethoxy-4-ethyl-5-[((S)-2-mercapto-4-methylpentanoylamino)methyl]imidazol-1-ylmethyl}-3′-fluorobiphenyl-2-carboxylic Acid]?
Answer: % M + 28 (ethyl ester imidazole impurity, HPLC area percentage) [1]: 0.05%; % M − 28 (acid dihydroimidazole impurity, HPLC area percentage) [1]: 0.04%; Δ % M + 28 (increase relative to time zero) [1]: 0.05%; Δ % M − 28 (increase relative to time zero) [1]: −0.01%; % M + 28 (ethyl ester imidazole impurity, HPLC area percentage) [2]: 0.05%; % M − 28 (acid dihydroimidazole impurity, HPLC area percentage) [2]: 0.05%; Δ % M + 28 (increase relative to time zero) [2]: 0.05%; Δ % M − 28 (increase relative to time zero) [2]: 0%; % M + 28 (ethyl ester imidazole impurity, HPLC area percentage) (T = 0, 40° C., listed as Ex. 1): 0%; % M − 28 (acid dihydroimidazole impurity, HPLC area percentage) (T = 0, 40° C., listed as Ex. 1): 0.05%

Question: What does the source list for `CCOc1nc(CC)c(CNC(=O)[C@@H](S)CC(C)C)n1Cc1ccc(-c2ccccc2C(=O)O)cc1F` [Example 2, 4′-{2-ethoxy-4-ethyl-5-[((S)-2-mercapto-4-methylpentanoylamino)-methyl]imidazol-1-ylmethyl}-3′-fluorobiphenyl-2-carboxylic acid]?
Answer: Δ % M + 28 (increase relative to time zero) (2 weeks at 40° C.): about 0.30%; Δ % M − 28 (increase relative to time zero) (2 weeks at 40° C.): about 0.38%; % M + 28 (ethyl ester imidazole impurity, HPLC area percentage) [3]: 0.40%; % M − 28 (acid dihydroimidazole impurity, HPLC area percentage) [3]: 0.47%; Δ % M + 28 (increase relative to time zero) [3]: 0.30%; Δ % M − 28 (increase relative to time zero) [3]: 0.38%; % M + 28 (ethyl ester imidazole impurity, HPLC area percentage) [4]: 0.44%; % M − 28 (acid dihydroimidazole impurity, HPLC area percentage) [4]: 0.61%; Δ % M + 28 (increase relative to time zero) [4]: 0.34%; Δ % M − 28 (increase relative to time zero) [4]: 0.52%; % M + 28 (ethyl ester imidazole impurity, HPLC area percentage) (T = 0, 40° C., listed as Ex. 2): 0.10%; % M − 28 (acid dihydroimidazole impurity, HPLC area percentage) (T = 0, 40° C., listed as Ex. 2): 0.09%

Question: With `CCOc1nc(CC)c(CNC(=O)[C@@H](S)CC(C)C)n1Cc1ccc(-c2ccccc2C(=O)O)cc1F` [Example 3, 4′-{2-ethoxy-4-ethyl-5-[((S)-2-mercapto-4-methylpentanoylamino)methyl]imidazol-1-ylmethyl}-3′-fluorobiphenyl-2-carboxylic acid] as the compound, how does the “Δ % M + 28 (increase relative to time zero)” value (2 weeks at 40° C.) read?
Answer: Its value is “about 0.01%”.

Question: What about the “Δ % M − 28 (increase relative to time zero)” value (2 weeks at 40° C.) of the same compound?
Answer: Its value is “about 0.05%”.

Question: What about the “% M + 28 (ethyl ester imidazole impurity, HPLC area percentage)” value [5] of the same compound?
Answer: The value was 0.07%.

Question: And the “% M − 28 (acid dihydroimidazole impurity, HPLC area percentage)” value [5]?
Answer: The value was 0.20%.

Question: And the “Δ % M + 28 (increase relative to time zero)” value [5]?
Answer: The value was 0.01%.

Question: What about the “Δ % M − 28 (increase relative to time zero)” value [5] of the same compound?
Answer: Its value is 0.05%.

Question: What about the “Δ % M + 28 (increase relative to time zero)” value [6] of the same compound?
Answer: The value was ≤ 0.1%.

Question: And the “Δ % M − 28 (increase relative to time zero)” value [6]?
Answer: Its value is ≤ 0.1%.

Question: And the “Δ % M + 28 (increase relative to time zero)” value (4 weeks at 40° C.)?
Answer: The value was “about 0.02%”.

Question: And the “Δ % M − 28 (increase relative to time zero)” value (4 weeks at 40° C.)?
Answer: Its value is “about 0.09%”.

Question: What about the “% M + 28 (ethyl ester imidazole impurity, HPLC area percentage)” value [7] of the same compound?
Answer: Its value is 0.08%.

Question: What about the “% M − 28 (acid dihydroimidazole impurity, HPLC area percentage)” value [7] of the same compound?
Answer: The value was 0.24%.

Question: What about the “Δ % M + 28 (increase relative to time zero)” value [7] of the same compound?
Answer: The value was 0.02%.

Question: And the “Δ % M − 28 (increase relative to time zero)” value [7]?
Answer: The value was 0.09%.

Question: What about the “Δ % M + 28 (increase relative to time zero)” value [8] of the same compound?
Answer: Its value is ≤ 0.1%.

Question: And the “Δ % M − 28 (increase relative to time zero)” value [8]?
Answer: The value was ≤ 0.1%.

Question: What about the “% M + 28 (ethyl ester imidazole impurity, HPLC area percentage)” value (T = 0, 40° C., listed as Ex. 3) of the same compound?
Answer: The value was 0.06%.

Question: And the “% M − 28 (acid dihydroimidazole impurity, HPLC area percentage)” value (T = 0, 40° C., listed as Ex. 3)?
Answer: Its value is 0.15%.

Question: What about the “chemical degradation by HPLC after storage” value (about 40° C. for at least 2 weeks, with a desiccant such as molecular sieves) of the same compound?
Answer: Its value is “minimal chemical degradation”.
